# According to patent publication US9510598B2, “Nitrogen-containing heterocyclic compounds for plant disease control” (BAYER CROPSCIENCE AG, priority 2012, dated 2016):
# Several values for one entry are separate records, joined by “and”; a condition that tells them apart may be missing. Identical values can stand only once.
# Conditions: Table 2, formula (II); method [a]: pH 2.7, 0.1% formic acid in water / acetonitrile gradient
# Method: Measurement of log P values was performed according EEC directive 79/831 Annex V.A8 by HPLC (High Performance Liquid Chromatography) on reversed phase columns with the following methods: ^[a]
row,SMILES,Log P
1,CC1(C(=O)O)CC(c2ccc3nc(Cl)c(Br)cc3c2)=NO1 (centres unmarked) [II-43],2.57[a]
2,COC(=O)C1(C)CC(c2ccc3nc(Cl)c(Br)cc3c2)=NO1 (centres unmarked) [II-44],3.74[a]
3,COC(=O)C1(C)CC(c2ccc3nc(O)c(Br)cc3c2)=NO1 (centres unmarked) [II-45],1.74[a]
4,CC1(C(=O)O)CC(c2ccc3nc(C#N)c(Br)cc3c2)=NO1 (centres unmarked) [II-46],2.23[a]
5,COC(=O)C1(C)CC(c2ccc3nc(C#N)c(Br)cc3c2)=NO1 (centres unmarked) [II-47],3.02[a]
6,CCOC(=O)C1(C)ON=C(c2ccc3ncc(Br)cc3c2)C1OCC (centres unmarked) [II-49],3.99[a]
7,COC(=O)CC1(C(=O)O)CC(c2ccc3ncc(Br)cc3c2)=NO1 (centres unmarked) [II-50],1.98[a]
8,COC(=O)C12ON=C(c3ccc4ncc(Br)cc4c3)C1C2C (centres unmarked) [II-51],3.09[a]
9,COC(=O)C1(CO)CC(c2ccc3ncc(Br)cc3c2)=NO1 (centres unmarked) [II-52],1.99[a]
10,C[Si](C)(C)CC1(C(=O)O)CC(c2ccc3ncc(Br)cc3c2)=NO1 (centres unmarked) [II-54],3.42[a]
11,C#Cc1cc2cc(C3=NOC(C)(C(=O)O)C3)ccc2nc1Cl (centres unmarked) [II-55],2.24[a]
12,C#Cc1cc2cc(C3=NOC(C)(C(=O)OC)C3)ccc2nc1Cl (centres unmarked) [II-56],3.01[a]
13,CCOC(=O)C1(OCC)CC(c2ccc3ncc(Br)cc3c2)=NO1 (centres unmarked) [II-57],2.53[a]
14,CCOC(=O)C1(C[Si](C)(C)C)CC(c2ccc3ncc(Br)cc3c2)=NO1 (centres unmarked) [II-58],3.80[a]
15,CC(C)OC(=O)C1(C)CC(c2ccc3ncc(Br)cc3c2)=NO1 (centres unmarked) [II-59],3.53[a]
16,COC(=O)C1(C)CC(c2ccc3nc(Cl)c(I)cc3c2)=NO1 (centres unmarked) [II-60],3.34 and 3.62
17,CCOC(=O)C1(CF)CC(c2ccc3ncc(Br)cc3c2)=NO1 (centres unmarked) [II-62],3.13[a]
18,CCOC(=O)C1(CC)CC(c2ccc3ncc(Br)cc3c2)=NO1 (centres unmarked) [II-63],3.53[a]
19,CCC1(C(=O)O)CC(c2ccc3ncc(Br)cc3c2)=NO1 (centres unmarked) [II-64],2.30[a]

row,SMILES,Log P
1,O=C(O)C1(CC2CC2)CC(c2ccc3ncc(Br)cc3c2)=NO1 (centres unmarked) [II-66],2.70[a]
2,CCOC(=O)C1(CC)CC(c2ccc3ncc(C#C[Si](C)(C)C)cc3c2)=NO1 (centres unmarked) [II-67],5.19[a]
3,COC(=O)C1(C)CC(c2ccc3nc(C#N)c(I)cc3c2)=NO1 (centres unmarked) [II-68],3.02[a]
4,C#Cc1cnc2ccc(C3=NOC(CC)(C(=O)O)C3)cc2c1 (centres unmarked) [II-69],2.05[a]
5,C=C(Cl)C1(C(=O)OC)CC(c2ccc3ncc(Br)cc3c2)=NO1 (centres unmarked) [II-70],3.68[a]
6,C#Cc1cnc2ccc(C3=NOC(OC)(C(=O)OCCCC(C)NC(C)CCCOC(=O)C4(OC)CC(c5ccc6ncc(C#C)cc6c5)=NO4)C3)cc2c1 (centres unmarked) [II-71],2.20[a]
7,C=C(C)C1(C(=O)OC)CC(c2ccc3ncc(Br)cc3c2)=NO1 (centres unmarked) [II-72],3.44[a]
8,C=C(C)C1(C(=O)O)CC(c2ccc3ncc(Br)cc3c2)=NO1 (centres unmarked) [II-73],2.52[a]
9,C#Cc1cnc2c(C)cc(C3=NOC(C)(C(=O)OC)C3)cc2c1 (centres unmarked) [II-74],3.07[a]
10,C#Cc1cnc2c(Cl)cc(C3=NOC(C)(C(=O)OC)C3)cc2c1 (centres unmarked) [II-75],2.92[a]
11,COC(=O)C1(C)CC(c2cc(Cl)c3ncc(Br)cc3c2)=NO1 (centres unmarked) [II-76],3.29[a]
12,C#Cc1cnc2c(Cl)cc(C3=NOC(C)(C(=O)O)C3)cc2c1 (centres unmarked) [II-78],2.20[a]
13,CC1(C(=O)O)CC(c2cc(Cl)c3ncc(Br)cc3c2)=NO1 (centres unmarked) [II-79],2.45[a]
14,C#Cc1cnc2c(C)cc(C3=NOC(C)(C(=O)O)C3)cc2c1 (centres unmarked) [II-81],2.30[a]
15,CC1(C(=O)O)CC(c2ccc3nc(C#N)c(I)cc3c2)=NO1 (centres unmarked) [II-82],2.24[a]
16,CC1(C(=O)O)CC(c2ccc3nc(Cl)c(I)cc3c2)=NO1 (centres unmarked) [II-83],2.59[a]
17,COC(=O)C1(SC)CC(c2ccc3ncc(Br)cc3c2)=NO1 (centres unmarked) [II-84],3.05[a]
18,Cc1cc(C2=NOC(C)(C(=O)O)C2)cc2cc(Br)cnc12 (centres unmarked) [II-85],2.64[a]
19,C#Cc1cnc2c(C)cc(C3=NOC(OC)(C(=O)OCC)C3)cc2c1 (centres unmarked) [II-86],3.46[a]
